These results are taken from patent US20140120088A1, “AGENTS FOR THE TREATMENT OF TUMORS” (Assistance Publique-Hopitaux de Paris, priority 2011, published 2014).

This assay concerns high-grade glioma with subarachnoid extension. In words: treatment of patients with high-grade glioma with subarachnoid extension. Format: in vivo, human. Conditions: responding patients; before the combined treatment, under bevacizumab alone, or when intrathecal CpG was resumed. As to the method: Four patients had high-grade glioma with subarachnoid extension. The treatment protocol of patients was as follows:
Subcutaneous injection of 0.3 mg/kg of CpG-ODN at D0, D7, D14, D21 et D28 (capped at 25 mg per injection, for patients>83 kg)
Intrathecal administration of CpG-ODN (7 mg) (in the cerebrospinal fluid) three times, with a two-week interval between each injection (D0, D14 and D28). (In 2 patients, the intrathecal injections were continued every 2 to 4 weeks for several months). (Other intrathecal injections of larger amounts of CpG-ODN (14 mg or 17 mg), again in three steps with a two weeks interval between each injection are currently tested, in other patients in a clinical trial.)
Intravenous perfusions of Avastin from 5 to 10 mg/kg every 2 weeks, started, depending on the cases, before, during or after the beginning of CpG-ODN.

Consider 5′-TAAACGTTATAACGTTATGACGTCAT-3′ [CpG], for which the “clinical outcome under single agent or on resuming the combination” value is reported as “only a slight improvement”.
The result for “Bevacizumab: monoclonal antibody directed against VEGF, marketed by Roche under the name of Avastin” reads “progression”.
